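Tested at 5 concentrations; 48 h exposure; 96-well plates; endpoints linearly interpolated, else capped at highest concentration. GI50 marks 50% less growth.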 Calls of active or inactive are those of the source. Cut-off read from the data, not from the text of the source: active = GI50 up to about 1.1 µM and inactive = higher. Where a SMILES comes first, the peptide text is derived from it. [ ]: non-standard residue; d: D form. Ac5c = NC1(C(=O)O)CCCC1
Key:
Assay in all cases: DTP human tumour cell line panel, 48 h
786-0 = system: 786-0
A498 = system: A498
DU-145 = system: DU-145
OVCAR-5 = system: OVCAR-5
SF-268 = system: SF-268
SK-OV-3 = system: SK-OV-3
KM12 = system: KM12
NCI-H522 = system: NCI-H522
SK-MEL-5 = system: SK-MEL-5
T47D = system: T47D
NCI-H460 = system: NCI-H460
NCI-H226 = system: NCI-H226
SF-539 = system: SF-539
A549 = system: A549
K562 = system: K562
BT-549 = system: BT-549
SNB-75 = system: SNB-75
MDA-MB-231 = system: MDA-MB-231
MCF7 = system: MCF7

Structure (SMILES)	GI50 (786-0)	GI50 (A498)	GI50 (DU-145)	GI50 (OVCAR-5)	GI50 (SF-268)	GI50 (SK-OV-3)	GI50 (KM12)	GI50 (NCI-H522)	GI50 (SK-MEL-5)	GI50 (T47D)	GI50 (NCI-H460)	GI50 (NCI-H226)	GI50 (SF-539)	GI50 (A549)	GI50 (K562)	GI50 (BT-549)	GI50 (SNB-75)	GI50 (MDA-MB-231)	GI50 (MCF7)
Cc1noc(NC(=O)Nc2ccccc2F)c1C#N	7.69 µM (inactive)	> 35 µM (inactive)	49.8 µM (inactive)	> 28.4 µM (inactive)	12.4 µM (inactive)	> 100 µM (inactive)	> 100 µM (inactive)	7.93 µM (inactive)	45.7 µM (inactive)	18.3 µM (inactive)	6.55 µM (inactive)	> 100 µM (inactive)	> 100 µM (inactive)	26.1 µM (inactive)	> 45.8 µM (inactive)	> 100 µM (inactive)	97.1 µM (inactive)		
Nn1c(CCCCCCCCc2nnc(COc3c(O)ccc4ccccc34)n2N)nnc1COc1c(O)ccc2ccccc12	99.3 µM (inactive)	> 100 µM (inactive)	> 100 µM (inactive)	> 100 µM (inactive)	> 100 µM (inactive)	> 100 µM (inactive)	> 100 µM (inactive)	> 100 µM (inactive)	> 100 µM (inactive)		57.9 µM (inactive)	> 100 µM (inactive)		> 100 µM (inactive)	> 100 µM (inactive)	> 100 µM (inactive)	> 100 µM (inactive)	> 100 µM (inactive)	> 100 µM (inactive)
Cc1ccc(NC(=O)C(=O)C2C(=O)C3=C(CC2(C)C)NC2C=CC=CC2S3)c(C)c1 (stereo unspecified)	66.4 µM (inactive)		> 100 µM (inactive)		36.8 µM (inactive)	> 100 µM (inactive)	> 100 µM (inactive)	> 100 µM (inactive)	85.1 µM (inactive)		> 100 µM (inactive)	56.2 µM (inactive)	43.8 µM (inactive)	> 100 µM (inactive)		> 100 µM (inactive)	30.4 µM (inactive)	53.5 µM (inactive)	> 100 µM (inactive)
CCCCc1ccc(C#CC#Cc2ccc(CCCC)s2)s1	> 100 µM (inactive)	> 100 µM (inactive)	> 100 µM (inactive)	> 100 µM (inactive)	> 100 µM (inactive)	> 100 µM (inactive)	> 100 µM (inactive)	> 100 µM (inactive)	> 100 µM (inactive)	> 100 µM (inactive)	> 100 µM (inactive)	> 100 µM (inactive)	> 100 µM (inactive)				> 100 µM (inactive)	> 100 µM (inactive)	> 100 µM (inactive)
COC(=O)c1cc(C(=O)OC)c(CC(=O)C(=O)NC2C3CC4CC(C3)CC2C4)nc1CC(=O)C(=O)NC1C2CC3CC(C2)CC1C3 (stereo unspecified)	> 100 µM (inactive)	> 100 µM (inactive)		> 100 µM (inactive)	> 100 µM (inactive)	> 100 µM (inactive)	> 100 µM (inactive)	> 100 µM (inactive)	> 100 µM (inactive)		> 100 µM (inactive)	> 100 µM (inactive)	> 100 µM (inactive)	> 100 µM (inactive)	> 100 µM (inactive)		> 100 µM (inactive)		
COc1ccc(C(CC(=O)c2ccccc2)C(=O)c2ccc3c(c2)OCO3)cc1 (stereo unspecified)	> 100 µM (inactive)	> 100 µM (inactive)	> 100 µM (inactive)		> 100 µM (inactive)	> 100 µM (inactive)	> 100 µM (inactive)		> 100 µM (inactive)	77.3 µM (inactive)	> 100 µM (inactive)	> 100 µM (inactive)		> 100 µM (inactive)	> 100 µM (inactive)		> 100 µM (inactive)	> 100 µM (inactive)	> 100 µM (inactive)
C/C(=C\COP(=O)(O)OP(=O)(O)O)CC/C=C(\C)CNc1ccc([N+](=O)[O-])cc1	> 100 µM (inactive)		> 100 µM (inactive)	> 100 µM (inactive)	> 100 µM (inactive)	> 100 µM (inactive)	> 100 µM (inactive)	> 100 µM (inactive)	> 100 µM (inactive)	> 100 µM (inactive)	> 100 µM (inactive)	> 100 µM (inactive)	> 100 µM (inactive)	> 100 µM (inactive)	> 100 µM (inactive)		> 100 µM (inactive)	> 100 µM (inactive)	> 100 µM (inactive)
COC(=O)/C=C(C)/C=C/C1OC(C)OCC1O (stereo unspecified)	> 100 µM (inactive)	> 100 µM (inactive)		> 100 µM (inactive)	> 100 µM (inactive)	> 100 µM (inactive)	> 100 µM (inactive)	> 100 µM (inactive)	> 100 µM (inactive)		> 100 µM (inactive)	> 100 µM (inactive)	> 100 µM (inactive)	> 100 µM (inactive)	> 100 µM (inactive)				
O=S(=O)(c1ccc(NC(=S)N/N=C/c2ccccc2O)cc1)N1CCCCC1	0.188 µM (active)	0.264 µM (active)		0.269 µM (active)	0.0446 µM (active)	0.39 µM (active)		1.61 µM (inactive)	< 0.01 µM (active)	0.419 µM (active)		0.151 µM (active)	0.326 µM (active)	0.255 µM (active)	0.341 µM (active)	37.8 µM (inactive)	1.36 µM (inactive)		0.255 µM (active)
Oc1nc2cc(Cl)ccc2nc1/C(=N\Nc1ccccc1)C(O)c1ccc(Cl)c(Cl)c1 (stereo unspecified)	> 100 µM (inactive)			> 100 µM (inactive)	47.1 µM (inactive)	> 100 µM (inactive)	> 100 µM (inactive)	> 100 µM (inactive)	> 100 µM (inactive)		> 100 µM (inactive)	> 100 µM (inactive)	> 100 µM (inactive)	> 100 µM (inactive)	> 100 µM (inactive)		> 100 µM (inactive)		
Cc1ccc(SC(C)/C=C/NNC2=NN=C(c3ccccc3)C(c3ccccc3)N2)cc1 (stereo unspecified)	39.6 µM (inactive)	40.4 µM (inactive)		21.5 µM (inactive)	28 µM (inactive)	32.2 µM (inactive)	27.5 µM (inactive)	23.1 µM (inactive)	14.6 µM (inactive)		33.1 µM (inactive)	29 µM (inactive)	34.2 µM (inactive)	33.1 µM (inactive)	36.9 µM (inactive)		20.7 µM (inactive)		
CN(CCO)CCCC1COc2ccccc2O1 (stereo unspecified)	> 100 µM (inactive)		> 100 µM (inactive)	> 100 µM (inactive)	20.7 µM (inactive)	> 100 µM (inactive)		> 100 µM (inactive)	> 100 µM (inactive)		> 100 µM (inactive)	> 100 µM (inactive)	> 100 µM (inactive)	> 100 µM (inactive)	> 100 µM (inactive)	> 100 µM (inactive)	> 100 µM (inactive)		> 100 µM (inactive)
O=C1CCCC1C(O)(C(F)(F)F)C(F)(F)F (stereo unspecified)	> 100 µM (inactive)	> 100 µM (inactive)	> 100 µM (inactive)	> 100 µM (inactive)	> 100 µM (inactive)		> 100 µM (inactive)	> 100 µM (inactive)	> 100 µM (inactive)	> 100 µM (inactive)	> 100 µM (inactive)	> 100 µM (inactive)	> 100 µM (inactive)	> 100 µM (inactive)	> 100 µM (inactive)		> 100 µM (inactive)	> 100 µM (inactive)	> 100 µM (inactive)
COc1ccc(C2Oc3c(c(O)cc4c3[C@H](c3ccc(O)cc3O)[C@H](O)C(c3ccc(O)c(O)c3)O4)C[C@@H]2O)cc1O (stereo partly specified)	> 100 µM (inactive)	> 100 µM (inactive)		> 100 µM (inactive)	> 100 µM (inactive)	> 100 µM (inactive)	> 100 µM (inactive)	> 100 µM (inactive)	> 100 µM (inactive)		> 100 µM (inactive)	> 100 µM (inactive)	> 100 µM (inactive)	> 100 µM (inactive)	> 100 µM (inactive)		> 100 µM (inactive)		
COC(CCC[N+](C)(C)C)CC[N+](C)(C)C (stereo unspecified)	> 100 µM (inactive)		> 100 µM (inactive)	> 100 µM (inactive)	> 100 µM (inactive)	> 100 µM (inactive)		> 100 µM (inactive)	> 100 µM (inactive)		> 100 µM (inactive)	> 100 µM (inactive)	> 100 µM (inactive)	> 100 µM (inactive)	> 100 µM (inactive)	> 100 µM (inactive)	> 100 µM (inactive)		> 100 µM (inactive)
COc1c(O)cc(C(=O)O[C@@H]2Cc3c(O)cc(O)cc3O[C@@H]2c2cc(O)c(O)c(O)c2)cc1O	18.5 µM (inactive)	94.6 µM (inactive)	20.3 µM (inactive)	39.4 µM (inactive)	20.5 µM (inactive)	> 100 µM (inactive)	20.1 µM (inactive)	24.4 µM (inactive)	26.7 µM (inactive)	26.2 µM (inactive)	24.5 µM (inactive)			23 µM (inactive)	22.8 µM (inactive)	25.3 µM (inactive)			20 µM (inactive)
COC(=O)C1(NC(=O)C(C)NC(=O)C(CCCCN)NC(=O)C(CC(C)C)NC(C)=O)CCCC1 (stereo unspecified) (Ac-LKA[Ac5c]-OMe; configuration not given here)	> 100 µM (inactive)				> 100 µM (inactive)	> 100 µM (inactive)	> 100 µM (inactive)	> 100 µM (inactive)	> 100 µM (inactive)	> 100 µM (inactive)	> 100 µM (inactive)		> 100 µM (inactive)	> 100 µM (inactive)	> 100 µM (inactive)		> 100 µM (inactive)	> 100 µM (inactive)	> 100 µM (inactive)

From ChEMBL document CHEMBL1201862, “PubChem BioAssay data set” (2004)
